Reference: patent publication US7582786B2, “Synthetic catalytic free radical scavengers useful as antioxidants for prevention and therapy of disease” (Eukarion Inc., priority 1996, dated 2009)

Key:
[1] = SOD activity, xanthine/xanthine oxidase with cytochrome C as acceptor (Example 2); format: biochemical; settings: for SOD: relative to C7 (C7 = 100)
In short: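 Superoxide was generated by 120 µM xanthine and 0.2 U/ml xanthine oxidase in 50 mM sodium phosphate pH 7.8 at 27 °C, with salen manganese compounds at ≥4 concentrations in duplicate.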

[2] = Peroxidase activity, H2O2-dependent oxidation of ABTS (Example 2); format: biochemical; settings: for Peroxidase rate: 10 μM salen manganese complex, 0.2 mM H2O2; for Peroxidase: relative to C7 (C7 = 100)
In short: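 ABTS oxidation by salen manganese complex (10 μM) with 0.2 mM H2O2 in 50 mM sodium phosphate pH 8.1 (or pH 6.0/7.1 where indicated), 0.9% NaCl, 0.5 mM ABTS, 27±0.2 °C. Oxidized ABTS read spectrophotometrically at 740 or 500 nm and quantified from Δε740 20,300 or Δε500 3400 M^−1cm^−1.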

[3] = system: Human dermal fibroblasts (HF cells); assay: Cell protection assay, glucose/glucose oxidase toxicity, XTT; format: cell-based; settings: for protection against glucose and glucose oxidase: glucose oxidase 0.019 units/ml
Description: Human dermal fibroblasts (HF cells) were obtained from the American type tissue Culture Collection at passage 1 and cultured and propagated in a medium (HF medium) consisting of Dulbecco's Modified Eagle's Medium with 4.5 g/l D-glucose, 10% calf serum 4 mM glutamine, 50 units/ml penicillin, and 50 μg/ml streptomycin in a 37° C. humidified incubator equilibrated with 5% CO2. Cells were used at passages 5 or 6 for experiments. For cell protection assays, HF cells were seeded at a density of about 15,000 cells per cm2 onto 96-well culture plates and allowed to grow to confluence. To assess protection tert-butylhydroperoxide (t-BHP) toxicity, confluent cell layers were first treated with the indicated concentrations of test compounds dissolved in HF medium for 18 hr. The medium was then replaced with fresh medium containing test compounds and 0.5 mM tert-butylhydroperoxide (t-BHP) and cells were incubated for another 18 hr. The medium was then removed and replaced with fresh HF medium (100 μl per well) without test compounds or t-BHP. Fifty μl of XTT reagent (Boeringer Mannheim, Inc.), prepared as described by the manufacturer, was then added to each well and the plates returned to the incubator. After 2 hr., the absorbance at 490 nm was measured in a BioRad (Richmond, Calif.) Model 3550 plate-reader, using a reference wavelength of 655 nm. Control cells that had not been exposed to test compounds or toxic agents were included among the samples treated with XTT reagent. Absorbance measurements for blank wells, containing HF medium and XTT reagent but no cells, were also determined. To analyze protection from glucose/glucose oxidase toxicity, confluent cell layers were incubated with HF medium containing glucose oxidase (0.019 units/ml) along with test compounds, as indicated, for 18 hr in the tissue culture incubator. Fresh HF medium was then added and cell viability assessed using the XTT reagent as described above. For both these models, concentrations of toxic agents were selected that were reproducibly completely lethal. Cytotoxicity assessments were routinely confirmed by visual inspection of the cell layers prior to addition of the XTT reagent.
Catalase and peroxidase activities were assayed as described in Example 2. Catalase assays contained 10 μM salen-manganese complex and 10 mM hydrogen peroxide. Peroxidase assays contained 10 μM salen-manganese complex and 0.2 mM hydrogen peroxide. Glucose-glucose oxidase toxicity assays were performed using human dermal fibroblasts as described in Example 2.

dopaminergic neurons = assay: MPTP mouse model of Parkinson's disease (mazindol binding); format: in vivo
Description: Neuronal damage was induced in mice by injection with MPTP as described in Example 1. Where indicated, mice were also treated with intraperitoneal injections of C40 at 0.02 or 0.2 mg/kg. The integrity of the nigrostriatal dopaminergic neurons was assessed based upon ^3H-Mazindol binding to striatal membranes harvested from the brains of these mice about 1 week after MPTP administration.
The experiment was performed over a 7 day period. […] The animals were sacrificed after 7 days.

Rats = assay: Rat model for myocardial infarct (permanent coronary occlusion); format: in vivo; settings: intravenous bolus immediately prior to surgery, 48 hr recovery
Description: Rats were subjected to permanent regional cardiac ischemia by surgical occlusion of the left coronary artery. […] Sham-operated rats were subjected to surgery but the suture was not tied on the coronary artery. After a 48 hr recovery period, cardiac functional parameters were measured with a Millar transducing catheter implanted into the left ventricle.

mice = assay: Mouse skin transplantation model; format: in vivo; settings: 50 mg/kg single intraperitoneal injection at grafting
Description: In this model, donor and recipient mice were immunologically mismatched (ClassI/Class II MHC mismatched). A piece of skin (˜1 cm^2) from the tail of a donor mouse was transplanted onto the back of a recipient mouse. The graft was bandaged and observed daily for rejection, as indicated by loss of vascularization and necrosis. Recipient mice received vehicle (Control) or 50 mg/kg C40 as a single intraperitoneal injection at the time of grafting.

[4] = Catalase activity, decomposition of hydrogen peroxide monitored at 240 nm (Example 1); format: biochemical; settings: Example 1, H2O2 decomposition at 240 nm
Description: Catalase activity was measured using a spectrophotometric method in which the decomposition of hydrogen peroxide is monitored at 240 nm according to the method of Aebi et al. (1984) Methods Enzymol. 105: 121, incorporated herein by reference. One unit of catalase activity is defined as the amount of enzyme (or salen-metal complex) required to decompose 1 μmole of hydrogen peroxide in one minute.

## COc1cc(OC)c2c(c1)[O][Mn]([O]C(C)=O)[O]c1cc(OC)cc(OC)c1C=NCCN=C2 [Compound C35]
[1]
  SOD: 27
[2]
  peroxidase activity (in words): undetectable activity
  Peroxidase rate: −0.1 ± 0.1 μM ABTS oxidized/min
  Peroxidase: 0
[3]
  protection against glucose and glucose oxidase (in words): not cytoprotective

## COc1cccc2c1[O][Mn]([Cl])[O]c1c(cccc1OC)C=NCCN=C2 [Compound C40]
[1]
  SOD: 96
[2]
  peroxidase activity (in words): fastest peroxidases
  Peroxidase rate: 32.9 ± 0.2 μM ABTS oxidized/min
  Peroxidase: 203
Dopaminergic neurons; C40 0.02 or 0.2 mg/kg intraperitoneal
  protection of dopaminergic neurons (3H-Mazindol binding to striatal membranes): protects dopaminergic neurons
[3]; 40 μM
  protection against glucose and glucose oxidase: significant protection
[3]; 80 μM
  protection against glucose and glucose oxidase: complete protection
Rats
  protection, left ventricular diastolic pressure: protection
mice
  graft rejection: delays rejection

## [Cl][Mn]1[O]c2ccccc2C=NCCN=Cc2ccccc2[O]1 [Compound C7]
[1]
  SOD activity (in words): catalytic SOD activity
  SOD: 100
[2]
  peroxidase activity (in words): exhibits peroxidase activity
  Peroxidase rate: 20.0 ± 0.5 μM ABTS oxidized/min
  Peroxidase: 100
[2]; 10 μM C7, 1 mM H2O2, pH 8.1
  ABTS oxidized: up to 88 μM
  peroxidase turnovers: over 8 turnovers
[4]
  Catalase Activity: 200 units/mM
Dopaminergic neurons; 7 day test period
  toxicity, adverse health effects: absence of adverse health effects
Dopaminergic neurons; C7 33 mg/kg i.p. pretreatment, MPTP 40 mg/kg days 1 and 2
  number of surviving dopaminergic neurons in MPTP-treated mice: approximately doubled
Dopaminergic neurons; C7 alone
  number of dopaminergic neurons, C7 alone: not adversely affected
Rats
  protection, left ventricular diastolic pressure: protection

## COc1cccc2c1[O][Mn]([O]C(C)=O)[O]c1c(cccc1OC)C=NCCN=C2 [Compound C32]
[1]
  SOD: 96
[2]
  peroxidase activity (in words): fastest peroxidases
  Peroxidase rate: 34.2 ± 1.5 μM ABTS oxidized/min
  Peroxidase: 203
[3]
  protection against glucose and glucose oxidase (in words): more protective than C43
[3]; 40 μM
  protection against glucose and glucose oxidase: significant protection
[3]; 80 μM
  protection against glucose and glucose oxidase: complete protection
